The subject of data set [1] is SARS-CoV-2. Put plainly: microbe, parasite or virus in culture. The following applies: for IC50 (half-maximal inhibitory concentration), DYRA / IC50: Calu-3 cells, SARS-CoV-2 lineage B.1, 48h, DYRA; for IC50: read-out: IC50 (half-maximal inhibitory concentration), DYRA. The class given is cell-based.
In a further data set the test system is Calu-3 cells. As to the kind of experiment: Cytotoxicity, CellTiter-Glo 2.0 Luminescent Cell Viability Assay. The following applies: read-out: CC50 (half-maximal cytotoxic concentration), 48h exposure. (ATP-based viability assays read luminescence as a measure of living cells.)
Data set [2] concerns SARS-CoV-2. Type of data set: cell-based. The conditions noted are these: for IC50 (half-maximal inhibitory concentration), SYRA: DYRA supernatants on VERO E6 cells, 24 h.
Data set [3] relates to SARS-CoV-2. Also noted: method as in PMID 32442105. The following applies: Huh-7 cells; viral RNA in cell supernatant; cited from earlier work.
For a further data set, the system named is Huh-7 cells. Also noted: method as in PMID 32442105. The conditions noted are these: cited from earlier work.
Another data set in a line: in vitro. The following applies: human.

Each structure is given as a SMILES string. Like-named read-outs stand apart in the source and are kept apart here.

As to `CC[P](CC)(CC)[Au][I]` [Au(Pet3)I], in the data set with SARS-CoV-2 [1], the “IC50 (half-maximal inhibitory concentration), DYRA” value is given as “Not active ^3”. For the same molecule, in the data set on Calu-3 cells, the CC50 amounted to 12 µM. In addition, the “IC50 (half-maximal inhibitory concentration), SYRA” value in the data set on SARS-CoV-2 [2] is “Not active ^3”.

With `CCOC(=O)CN(C)C1=[S+][Au-]([Br])([Br])[S]1` [AuL12], the “IC50 (half-maximal inhibitory concentration), DYRA” value with SARS-CoV-2 [1] is recorded as “Not active ^3”. Further, the CC50 in the data set on Calu-3 cells is 19 µM. In addition, the “IC50 (half-maximal inhibitory concentration), SYRA” value in the data set on SARS-CoV-2 [2] was “Not active ^3”.

On to `CC(=O)OC[C@H]1O[C@@H]([S-])[C@H](OC(C)=O)[C@@H](OC(C)=O)[C@@H]1OC(C)=O.CCP(CC)CC.[Au+]` [Auranofin], for which the “IC50 (half-maximal inhibitory concentration), DYRA” value in the data set on SARS-CoV-2 [1] is recorded as “Not active ^3”. In addition, the IC50 with SARS-CoV-2 [3] is 1.4 µM. The CC50 is 3.7 µM in the data set on Calu-3 cells and 5.7 µM with Huh-7 cells. In addition, the “IC50 (half-maximal inhibitory concentration), SYRA” value in the data set on SARS-CoV-2 [2] was “Not active ^3”.

Turning to `Cl.[Cl-].[Cl-].[Cl-].[Ru+3].c1ccc2[nH]ncc2c1.c1ccc2[nH]ncc2c1.c1ccc2[nH]ncc2c1` [KP1019], in the data set on SARS-CoV-2 [1], the IC50 stood at 8.8 ± 1.5 µM. For the same molecule, the CC50 in the data set with Calu-3 cells was 60 µM.

For `CS(C)=O.[Cl-].[Cl-].[Cl-].[Cl-].[Ru+3].c1c[nH+]c[nH]1.c1c[nH]cn1` [NAMI-A], in the data set on SARS-CoV-2 [1], the “IC50 (half-maximal inhibitory concentration), DYRA” value is listed as “Not active ^3”. Further, in the data set on SARS-CoV-2 [2], the “IC50 (half-maximal inhibitory concentration), SYRA” value was “Not active ^3”.

As to `Cl.[Cl-].[Cl-].[Cl-].[Ru+3].c1c[nH]cn1.c1c[nH]cn1` [NAMI-A], the CC50 in the data set on Calu-3 cells was above 200 µM.

As to `CCC(CC)COC(=O)[C@H](C)N[P@](=O)(OC[C@H]1O[C@@](C#N)(c2ccc3c(N)ncnn23)[C@H](O)[C@@H]1O)Oc1ccccc1` [Remdesivir], the “Selectivity Index” value in the data set with SARS-CoV-2 [1] (CC50/IC50 ratio, IC50 from DYRA) was 485. In addition, the IC50 with SARS-CoV-2 [1] (Severe acute respiratory syndrome coronavirus 2) is 0.2 ± 0.05 µM. The molecule also yielded a CC50 in the data set “in vitro” of 97 µM.

Take `[Cl][Sb]([Cl])[Cl]` [SbCl3, antimony trichloride]: the IC50 with SARS-CoV-2 [1] was 31.1 ± 15.3 µM. The CC50 with Calu-3 cells was 200 µM.

In the case of `[Cl-].[Cl-].[Ti+4].c1cc[cH-]c1.c1cc[cH-]c1` [TiCp2Cl2, Titanocene dichloride], the CC50 with Calu-3 cells was above 200 µM. In addition, in the data set with SARS-CoV-2 [2] (read-out: IC50 (half-maximal inhibitory concentration), SYRA), the IC50 amounted to 47.3 µM.

Source of the values: paper PMC8699537, “In Vitro Anti-SARS-CoV-2 Activity of Selected Metal Compounds and Potential Molecular Basis for Their Actions Based on Computational Study” (Biomolecules, 2021).
